Experimental data as given in US8957087B2, “Heterocyclic substituted acardite derivate and application thereof” (Jiangsu Provincial Institute of Materia Medica Co., Ltd., priority 2009, dated 2015).
Like-named read-outs stand apart in the source and are kept apart here.

What was measured:
[1] = tested on: human lung cancer cell strain A549; assay: MTT assay, inhibition of growth of human lung cancer cell strain A549; format: cell-based
Protocol: 4. Using 3-(4,5-dimethylthiazol-2-yl)-2,5-diphenyl tetrazolium bromide assay (MTT) to detect the inhibition effects on the growth of human lung cancer cell strain A549
[Test materials] MTT working solution, F12 medium containing 10% FBS, continuous injectors
(§1) [Tested compound] Compounds 1-38
(§2) [Positive control medicine] Sorafenib, compounds A′, B′, C′ with no substituent or only amino formyl in A ring
The inhibition rate is calculated as follows:
(§3) Relative OD value of conrol well=OD value of control well−OD value of blank well
(§4) Relative OD value of drug well=OD value of drug well−OD value of blank well

[2] = tested on: human high-metastic lung cancer cell 95D; assay: Inhibition of human high-metastic lung cancer cell 95D migration (Boyden Chamber Transwell); format: cell-based; conditions: Final concentration 1 x 1.0*10^(−5) mol/L
Protocol: 5 Inhibition effects of compounds on human high-metastic lung cancer cell 95D migration
[Test materials] Boyden Chamber Transwell chamber (with pore size of 8 μm), human high-metastic lung cancer cell 95D cell strain, 1640 medium containing 10% FBS, 1640 medium containing no serum
as §1, §2
(§5) The inhibition rate is calculated as follows: […]

lung cancer cell A549 = assay: Effects on the adhesive ability of lung cancer cell A549; format: cell-based, human; conditions: Final concentration 1 x 1.0*10^(−5) mol/L
Protocol: 6. Effects of tested compounds on the adhesive ability of lung cancer cell A549
[Test materials] gelatin, CCK8, poly-lysine (PLL), A549 cell stains, 1640 medium containing 10% FBS
(§6) [Tested compound] Compounds 1-38 to be tested
as §2, §5
Dosing dosing cells without cell group (gelatin adhesive OD/PLL adhesion OD)−Dosing cell group (gelatin adhesive OD/PLL adhesion OD value)
Dosing dosing cells without cell group (gelatin adhesive OD/PLL adhesion OD value)

[3] = tested on: human umbilical vein endothelial cell HUVEC; assay: Growth of human umbilical vein endothelial cell HUVEC by CCK8 method; format: cell-based; conditions: Final concentration 1 x 1.0*10^(−5) mol/L
Description: 7. Effects of tested compounds on the growth of human umbilical vein endothelial cell HUVEC cell by CCK8 method
[Test materials] CCK8, human umbilical vein endothelial cell HUVEC cell, 1640 medium containing 10% FBS
as §6, §2, §3, §4

[4] = tested on: human umbilical vein endothelial cell HUVEC; assay: Lumen formation ability of HUVEC (Matrigel method); format: cell-based; conditions: Final concentration 1 x 1.0*10^(−5) mol/L
Description: 8. Inhibition effects of compounds on the lumen formation ability of human umbilical vein endothelial cell HUVEC
[Experimental principles] The human umbilical vein endothelial cells have ability of spontaneously forming blood lumen on Matrigel, which can be used to simulate the process of angiogenesis in vivo. We used Matrigel method to investigate the effects of the compound on the lumen formation ability of human umbilical vein endothelial cell HUVEC.
[Test materials] HUVEC (taking generation 3 to 5 cells for experiments after obtained from primary separation and cultured at 37 under the conditions of 5% CO2), Matrigel, cell culture medium M199.
as §1, §2, §5

[5] = tested on: human lung cancer A549 transplantation tumor; format: in vivo; conditions: BALB/cA nude mice; 60 mg/kg, 6 times every week for 3 weeks; Sorafenib oral 60 mg/kg
Protocol: 9. Tumor inhibition rate of tested compounds on human lung cancer A549 cell transplantation model in nude mice
(§7) [Test animals] female BALB/cA nude mice, 35-40 days old, with weight of 18-22g. There were 12 mice in the negative conrol group and 6 mice in the treatment group.
(§8) The dosage of the compound was 60 mg/kg, 6 times every week for 3 weeks. […] Equal amount of normal saline was administrated in the negative control group. Observe for one week after administration.

[6] = tested on: human liver cancer cell bel-7402 transplantation tumor; format: in vivo; conditions: 60 mg/kg
Protocol: 10. Tumor inhibition rate of tested compounds on human liver cancer cell bel-7402 transplantation tumor model in nude mice
as §7, §8

[7] = tested on: renal carcinoma cell line GCR-1 transplanted tumor; format: in vivo, BALB/cA nude mice; conditions: BALB/cA nude mice; 60 mg/kg, 6 times every week for 3 weeks; Sorafenib oral 60 mg/kg
Protocol: 11. Tumor inhibition rate of medicines on renal carcinoma cell line GCR-1 transplanted tumor model in nude mice
as §7
[Test method] […] The dosage of the medicine was 60 mg/kg, 6 times every week for 3 weeks. […] Equal amount of normal saline was administrated in the negative control group. Observe for one week after administration.

Raf-1(truncated) = assay: Raf-1 inhibitor screening by chemoluminescence method; format: biochemical; conditions: Final concentration 1 x 1.0*10^−5 mol/ml
Description: 1. Inhibitory activity of the compound of the present invention on raf kinase
Raf-1 inhibitor screening by chemoluminescence method
Westernblot electrophoresis apparatus Rotaryshaker
Raf-1(truncated), Magnesium/ATP Cocktail, MEK1 unactive

mice S180 sarcoma = assay: Experimental therapeutic action on S180 sarcoma mice; conditions: mice S180 sarcoma, 60 mg/kg orally for 9 days
[8] = tested on: Human colon cancer HT-29 transplantable tumor; assay: Human colon cancer HT-29 transplantable tumor in nude mice; conditions: HT-29 in nude mice, 60 mg/kg ig 9 times
[9] = Final concentration 1 x 1.0*10^(−5) mol/L
[10] = BALB/cA nude mice, 6 times every week for 3 weeks, Sorafenib oral 60 mg/kg

Molecule	Inhibition rate, growth of human lung cancer cell A549 [1] [%]	Inhibition rate, 95D cell strain migration [2] [%]	Inhibition rate, adhesion ability of human lung cancer cell A549 (lung cancer cell A549) [%]	Inhibition rate, growth of HUVEC cell [3] [%]	Inhibition rate, lumen formation ability of HUVEC [4] [%]	Relative tumor reproduction rate T/C (%) on human lung cancer A549 transplantation tumor in nude mice [5] [%]	Relative tumor reproduction rate T/C (%) on human liver cancer cell bel-7402 transplantation tumor model in nude mice ([6]; mouse, in vivo, po) [%]	Relative tumor reproduction rate T/C (%) on human renal carcinoma GCR-1 cell transplanted tumor model in nude mice [7] [%]	Inhibition rate % on raf kinase (Raf-1(truncated)) [%]	Inhibition rate, growth of human lung cancer cell A549 [1, 9] [%]	Relative tumor reproduction rate T/C (%) on human liver cancer cell bel-7402 transplantation tumor model in nude mice [6, 10] [%]	Tumor growth inhibition rate (%) (mice S180 sarcoma)	Relative tumor reproduction rate T/C (%) [8] [%]
O=C(Nc1ccc(Oc2ccncn2)cc1)Nc1ccc(Cl)c(C(F)(F)F)c1 [Compound B′, reference compound]	61.62	61.60	69.26	31.64	61.62	40.4	30.4	30.4					
CNC(=O)c1ncc(Oc2ccc(NC(=O)Nc3ccc(Cl)c(C(F)(F)F)c3)cc2)c(OC)n1 [Compound 7, N-(4-chloro-3-(trifluoromethyl)phenyl)-N′-(4-(2-(N-methylaminoformoxyl)-5-(4-methoxypyrimidinyl)oxy)phenyl)urea]		89.34	68.34	8.30	60.34	39.3		21.2	99.1	45.30	34.2	21.5	40.1
O=C(Nc1ccc(Oc2ncnc3cc(F)ccc23)cc1)Nc1ccc(Cl)c(C(F)(F)F)c1 [Compound 19, N-(4-chloro-3-(trifluoromethyl)phenyl)-N′-(4-(4-(7 fluoroquinazolinyl)oxy)phenyl)urea]	91.23	90.21	90.28	5.23	89.22	7.7		13.2	93.5		16.3	50.8	39.4
COc1ccc2nccc(Oc3ccc(NC(=O)Nc4ccc(Br)c(C(F)(F)F)c4)cc3)c2c1 [Compound 18]		93.73	93.72	5.71	63.71	12.5		12.3	34.4	90.71	12.7	35.7	40.2
CNC(=O)c1nc(Oc2ccc(NC(=O)Nc3ccc(F)c(C(F)(F)F)c3)cc2)c2ccc(F)cc2n1 [Compound 5, N-(4-fluoro-3-(trifluoromethyl)phenyl)-N′-(4-(2-(N-methylaminoformoxyl)-4-(7 fluoroquinazolinyl)oxy)phenyl)urea]		97.51	87.58	8.50	87.50	11.6		11.2	98.9	93.50	15.7	49.3	38.24
CNC(=O)c1ncc(Oc2ccc(NC(=O)Nc3ccc(F)c(C(F)(F)F)c3)cc2)c(OC)n1 [Compound 8, N-(4-fluoro-3-(trifluoromethyl)phenyl)-N′-(4-(2-(N-methylaminoformoxyl)-5-(4-methoxypyrimidinyl)oxy)phenyl)urea]		89.56	61.56	13.67	78.59	30.5		29.1		60.67	30.6	58.2	37.6
N-(4-fluoro-3-(trifluoromethyl)phenyl)-N′-(4-(4-pyrryl)oxy)phenyl)urea [Compound C′, reference compound]	62.25	63.20	68.62	22.27	60.50	36.6		35.6			32.6		
O=C(Nc1ccc(Oc2ccnc3ccccc23)cc1)Nc1ccc(Cl)c(C(F)(F)F)c1 [Compound A′, reference compound]	58.51	63.51	71.55	23.11	60.51	43.2		34.2			37.2		
